The values below come from patent US9266924B2, “Cyclopentapeptide derivatives and uses thereof” (TECHNISCHE UNIVERSITÄT MÜNCHEN, priority 2010, dated 2016).

The target in this experiment is T1, human-CXCR4 (Homo sapiens, UniProt P61073).
T1 construct: tested first at Jurkat cells that endogenously express the CXCR4 receptor; endogenous in cells; host or cells: Jurkat cells (whole cells in suspension)
Put plainly: Competition binding assay on Jurkat cells with 125I-CPCR4 as radiotracer. Here is the method:
For receptor binding assays cells may be resuspended in PBS/0.2% BSA. A total of 200 μl of the suspension containing 400,000 Jurkat cells may be incubated with 25 μl of the tracer solution (containing 3.1 kBq, approx. 0.1 nM) and 25 μl of the diluent or the competitor at different concentrations. […] After shaking for 2 h at room temperature, the incubation may be terminated by centrifugation at 1300 rpm for 5 min, Cell pellets may be washed once with cold PBS followed by a second centrifugation step. Cell bound radioactivity may be determined by using a gamma counter. Experiments may be repeated 2-3 times in triplicates. IC50 values of the compounds may be calculated by nonlinear regression using GraphPad Prism (GraphPad Prism 4.0 Software, Inc., San Diego, Calif., USA). Each data point may be the average of three determinations.
Cells were resuspended in 0.2% PBS/0.2% BSA. A total of 200 μL of the suspension containing 2×10^6 Jurkat cells/ml or 400000 cell/200 μl were incubated with 25 μL of the tracer solution (containing 100,000 cpm, approx. 0.1 nM) and 25 μL of competitor dissolved in ultra pure H2O or, if necessary, up to 20% DMSO at different concentrations. The tracer concentration was varied from 5 to 500 pM.
After 2 h at room temperature, the incubation was terminated by centrifugation at 2000 rpm for 5 min. Cell pellets were washed once with 400 μL cold PBS. Cell bound radioactivity was determined by using a gamma counter. Experiments were repeated three times in triplicates. IC50 values of the peptides were calculated by nonlinear regression using GraphPad Prism (GraphPad Prism 4.0 Software, San Diego, Calif., USA).
The cell concentration was determined with a Casy cell counter (500 cell suspension in 10 ml Casy solution (Innovartis AG, Casy technology). The desired cell suspension volume was transferred into an Eppendorf tube, centrifuged, the supernatant was discarded and the pellet was resuspended in 20 ml 0.2% PBS-BSA-buffer.
Subsequently, the tubes were placed on a shaker for 2 h (200 mot/min). Thereafter, the tubes were centrifuged for 5 min at 2000 rpm and the supernatant carefully removed. The pellets were washed with 400 μl PBS and the tubes were again centrifuged for 5 min at 2000 rpm. After the supernatant was carefully removed, the tubes were measured in a gamma counter. All data were analyzed with a suitable software package, i.e. GraphPad Prism 4 with the following parameters: Equation: Sigmoidal dose-response, Y=Bottom+(Top−Bottom)/(1+10^((Log EC50−X))); X is the logarithm of concentration; Y is the response; Y starts at bottom and goes to top with a sigmoid shape.

[1] abbreviates: Jurkat cells, 125I-CPCR4 tracer, 2 h at room temperature, read-out: IC50 [nM] (Binding Data).
Where [2] appears, read: read-out: IC50 [nM] (Binding Data).

Like-named read-outs stand apart in the source and are kept apart here. Where a SMILES comes first, the peptide text is derived from it. Side-chain parts run from the residue outwards. [ ]: non-standard residue; d: D form. The star is where a group is joined. DOTA(Ga) = O=C1CN2CCN3CCN(CC(=O)*)CCN(CC2)CC(=O)[O][Ga]([O]1)[O]C(=O)C3; DOTA(In) = O=C1CN2CCN3CCN(CC(=O)*)CCN(CC2)CC(=O)[O][In]([O]1)[O]C(=O)C3; DOTA = O=C(O)CN1CCN(CC(=O)O)CCN(CC(=O)*)CCN(CC(=O)O)CC1; 2Nal = N[C@@H](Cc1ccc2ccccc2c1)C(=O)O; dNMeOrn = CN[C@H](CCCN)C(=O)O; 4Abz = Nc1ccc(C(=O)O)cc1; AEEA = NCCOCCOCC(=O)O; Ava = NCCCCC(=O)O; βAla = NCCC(=O)O

T1 sequence (P61073 whole entry): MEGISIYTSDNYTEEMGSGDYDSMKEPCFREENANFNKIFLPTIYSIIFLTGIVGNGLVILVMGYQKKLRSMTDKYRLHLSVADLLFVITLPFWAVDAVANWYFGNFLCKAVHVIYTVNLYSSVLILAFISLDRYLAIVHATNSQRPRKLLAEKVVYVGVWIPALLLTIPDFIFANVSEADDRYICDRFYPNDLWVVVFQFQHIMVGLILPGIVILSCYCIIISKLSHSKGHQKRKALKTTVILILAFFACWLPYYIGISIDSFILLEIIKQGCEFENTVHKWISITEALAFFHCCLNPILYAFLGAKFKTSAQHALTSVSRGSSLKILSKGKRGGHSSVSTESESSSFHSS

What is called IC50 is the concentration needed to halve the response being measured. Take `CN1C(=O)[C@@H](Cc2ccc(O)cc2)NC(=O)CNC(=O)[C@H](Cc2ccc3ccccc3c2)NC(=O)[C@H](CCCNC(=N)N)NC(=O)[C@H]1CCCNC(=O)CCCCNC(=O)CCCCNC(=O)CN1CCN2CCN3CCN(CC1)CC(=O)[O][In]([O]C(=O)C2)[O]C(=O)C3` [Compound 23, yorn′(AVS, AVS, DOTA, In)RNalG] (cyclo([2Nal]G[dY][dNMeOrn]([Ava-Ava-DOTA(In)])R)): the IC50 under setting [1] worked out at 123 ± 25 nM.
Consider `CN1C(=O)[C@@H](Cc2ccc(O)cc2)NC(=O)CNC(=O)[C@H](Cc2ccc3ccccc3c2)NC(=O)[C@H](CCCNC(=N)N)NC(=O)[C@H]1CCCNC(=O)c1ccc(NC(=O)CNC(=O)CN2CCN(CC(=O)O)CCN(CC(=O)O)CCN(CC(=O)O)CC2)cc1` [Compound 10, yorn′(ABS, G, DOTA)RNalG], for which the IC50 under setting [1] was 88.8 ± 18.4 nM.
As for `CN1C(=O)[C@@H](Cc2ccc(O)cc2)NC(=O)CNC(=O)[C@H](Cc2ccc3ccccc3c2)NC(=O)[C@H](CCCNC(=N)N)NC(=O)[C@H]1CCCNC(=O)c1ccc(NC(=O)CN2CCN(CC(=O)O)CCN(CC(=O)O)CCN(CC(=O)O)CC2)cc1` (single isomer, unassigned) [Compound 13, yorn′(ABS, DOTA, Ga)RNalG], the IC50 under setting [1] came out at 11.5 ± 4.4 nM.
In the case of `CN1C(=O)[C@@H](Cc2ccc(O)cc2)NC(=O)CNC(=O)[C@H](Cc2ccc3ccccc3c2)NC(=O)[C@H](CCCNC(=N)N)NC(=O)[C@H]1CCCNC(=O)c1ccc(NC(=O)CCCCNC(=O)CN2CCN(CC(=O)O)CCN(CC(=O)O)CCN(CC(=O)O)CC2)cc1` [Compound 18, yorn′(ABS, AVS, DOTA)RNalG], the IC50 under setting [1] worked out at 121 ± 17 nM.
`CN1C(=O)[C@@H](Cc2ccc(O)cc2)NC(=O)CNC(=O)[C@H](Cc2ccc3ccccc3c2)NC(=O)[C@H](CCCNC(=N)N)NC(=O)[C@H]1CCCNC(=O)c1ccc(NC(=O)CN2CCN(CC(=O)O)CCN(CC(=O)O)CCN(CC(=O)O)CC2)cc1` [Compound 15, yorn′(ABS, DOTA)RNalG]: the IC50 under setting [1] came out at 335 nM.
Turning to “yorn′(ABS, betaAla, DOTA, In)RNalG [Compound 4]”, the IC50 under setting [1] is 30.4 ± 3.68 nM.
For the molecule `CN1C(=O)[C@@H](Cc2ccc(O)cc2)NC(=O)CNC(=O)[C@H](Cc2ccc3ccccc3c2)NC(=O)[C@H](CCCNC(=N)N)NC(=O)[C@H]1CCCNC(=O)c1ccc(NC(=O)CCNC(=O)CN2CCN(CC(=O)O)CCN(CC(=O)O)CCN(CC(=O)O)CC2)cc1` [Compound 1, yorn′(ABS, betaAla, DOTA)RNalG] (cyclo([dY][dNMeOrn]([4Abz-βAla-DOTA])R[2Nal]G)), under setting [1], the IC50 was determined as 37.6 ± 14.7 nM.
Turning to `CN1C(=O)[C@@H](Cc2ccc(O)cc2)NC(=O)CNC(=O)[C@H](Cc2ccc3ccccc3c2)NC(=O)[C@H](CCCNC(=N)N)NC(=O)[C@H]1CCCNC(=O)CCCCNC(=O)CCCCNC(=O)CN1CCN2CCN3CCN(CC1)CC(=O)[O][Ga]([O]C(=O)C2)[O]C(=O)C3` [Compound 24, yorn′(AVS, AVS, DOTA, Ga)RNalG] (cyclo([2Nal]G[dY][dNMeOrn]([Ava-Ava-DOTA(Ga)])R)), the IC50 under setting [1] was determined as 89.7 ± 18.3 nM.
With `CN1C(=O)[C@@H](Cc2ccc(O)cc2)NC(=O)CNC(=O)[C@H](Cc2ccc3ccccc3c2)NC(=O)[C@H](CCCNC(=N)N)NC(=O)[C@H]1CCCNC(=O)c1ccc(NC(=O)CN2CCN3CCN4CCN(CC2)CC(=O)[O][Ga]([O]C(=O)C3)[O]C(=O)C4)cc1` [Compound 17, yorn′(ABS, DOTA, Ga)RNalG] (cyclo([2Nal]G[dY][dNMeOrn]([4Abz-DOTA(Ga)])R)), the IC50 under setting [1] worked out at 11.5 ± 4.4 nM.
On to `CN1C(=O)[C@@H](Cc2ccc(O)cc2)NC(=O)CNC(=O)[C@H](Cc2ccc3ccccc3c2)NC(=O)[C@H](CCCNC(=N)N)NC(=O)[C@H]1CCCNC(=O)c1ccc(NC(=O)CN2CCN3CCN4CCN(CC2)CC(=O)[O][In]([O]C(=O)C3)[O]C(=O)C4)cc1` [Compound 16, yorn′(ABS, DOTA, In)RNalG] (cyclo([2Nal]G[dY][dNMeOrn]([4Abz-DOTA(In)])R)), for which the IC50 under setting [1] was determined as 105 nM.
Turning to `CN1C(=O)[C@@H](Cc2ccc(O)cc2)NC(=O)CNC(=O)[C@H](Cc2ccc3ccccc3c2)NC(=O)[C@H](CCCNC(=N)N)NC(=O)[C@H]1CCCNC(=O)CN1CCN2CCN3CCN(CC1)CC(=O)[O][Ga]([O]C(=O)C2)[O]C(=O)C3` [Compound 21, yorn′(DOTA, Ga)RNalG] (cyclo([2Nal]G[dY][dNMeOrn](DOTA(Ga))R)), the IC50 under setting [1] was found to be 289 nM.
Turning to `CN1C(=O)[C@@H](Cc2ccc(O)cc2)NC(=O)CNC(=O)[C@H](Cc2ccc3ccccc3c2)NC(=O)[C@H](CCCNC(=N)N)NC(=O)[C@H]1CCCNC(=O)c1ccc(CNC(=O)CN2CCN(CC(=O)O)CCN(CC(=O)O)CCN(CC(=O)O)CC2)cc1` (single isomer, unassigned) [Compound 8, yorn′(AMBS, DOTA, In)RNalG], the IC50 under setting [2] was 44.9 ± 10.4 nM.
`CN1C(=O)[C@@H](Cc2ccc(O)cc2)NC(=O)CNC(=O)[C@H](Cc2ccc3ccccc3c2)NC(=O)[C@H](CCCNC(=N)N)NC(=O)[C@H]1CCCNC(=O)c1ccc(NC(=O)CCCCCNC(=O)CN2CCN(CC(=O)O)CCN(CC(=O)O)CCN(CC(=O)O)CC2)cc1` [Compound 14, yorn′(ABS, Ahx, DOTA)RNalG]: the IC50 under setting [2] was greater than 1000 nM.
For `CN1C(=O)[C@@H](Cc2ccc(O)cc2)NC(=O)CNC(=O)[C@H](Cc2ccc3ccccc3c2)NC(=O)[C@H](CCCNC(=N)N)NC(=O)[C@H]1CCCNC(=O)CN1CCN2CCN3CCN(CC1)CC(=O)[O][In]([O]C(=O)C2)[O]C(=O)C3` [Compound 20, yorn′(DOTA, In)RNalG] (cyclo([2Nal]G[dY][dNMeOrn](DOTA(In))R)), the IC50 under setting [1] is greater than 1000 nM.
As for `CN1C(=O)[C@@H](Cc2ccc(O)cc2)NC(=O)CNC(=O)[C@H](Cc2ccc3ccccc3c2)NC(=O)[C@H](CCCNC(=N)N)NC(=O)[C@H]1CCCNC(=O)c1ccc(CNC(=O)CN2CCN(CC(=O)O)CCN(CC(=O)O)CCN(CC(=O)O)CC2)cc1` (single isomer, unassigned) [Compound 9, yorn′(AMBS, DOTA, Ga)RNalG], the IC50 came to 4.78 ± 0.73 nM (IC50 (Exemplary Binding Study A), Jurkat cells, 125I-CPCR4 tracer, n=4) and 7 ± 4.25 nM (IC50 [nM] (Binding Data), Jurkat cells, 125I-CPCR4 tracer, 2 h at room temperature).
Regarding `CN1C(=O)[C@@H](Cc2ccc(O)cc2)NC(=O)CNC(=O)[C@H](Cc2ccc3ccccc3c2)NC(=O)[C@H](CCCNC(=N)N)NC(=O)[C@H]1CCCNC(=O)CNC(=O)COCCOCCNC(=O)CN1CCN2CCN3CCN(CC1)CC(=O)[O][In]([O]C(=O)C2)[O]C(=O)C3` [Compound 26, yorn′(G, Trigas, DOTA, In)RNalG] (cyclo([2Nal]G[dY][dNMeOrn]([Gly-AEEA-DOTA(In)])R)), the IC50 under setting [1] stood at 457 nM.
